Reference: US7084141B2, “Inhibitors of macrophase migration inhibitory factor and methods for identifying the same” (Avanir Pharmaceuticals, priority 2001, dated 2006)
Where two headings read alike, the source gives them in different places.

Columns and labels:
MIF = target: T1, MIF (Homo sapiens, UniProt P14174); assay: Immunoprecipitation of MIF from conditioned media of LPS treated THP-1 cells with monoclonal or polyclonal antibody; format: cell-based; details: 10 μM compound; LPS 10 μg/ml; not observed with polyclonal antibody
T1 sequence (P14174 2-115 limits assumed): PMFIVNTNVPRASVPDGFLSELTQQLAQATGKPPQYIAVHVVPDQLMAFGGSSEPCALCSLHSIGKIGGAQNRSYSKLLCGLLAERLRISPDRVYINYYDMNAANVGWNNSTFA
Protocol: Cell culture experiments were designed to characterize the activity of candidate compounds, MIF expression, trafficking, and export. Cell and conditioned medium fractions are prepared for immunoprecipitation essentially as described previously (Florkiewicz et al., Growth Factors 4:265–275, 1991; Florkiewicz et al., Ann. N.Y. Acad. Sci. 638:109–126) except that 400 μl of lysis buffer (1% NP-40, 0.5% deoxycholate, 20 mM Tris pH 7.5, 5 mM EDTA, 2 mM EGTA, 0.01 mM phenylmethylsufonyl fluoride, 10 ng/ml aprotinin, 10 ng/ml leupeptin, 10 ng/ml peptstatin) is added to the medium fraction after clarification by centrifugation in a microfuge for 15 minutes. Cell or medium fractions are incubated with monoclonal or polyclonal antibodies to MIF and GammaBind™ G Sepharose® (Pharmacia LKB Biotechnology, Uppsala, Sweden) was added for an additional 30 minutes incubation. Immune complexes are sedimented by microfuge centrifugation, washed three times with lysis buffer, and four times with ice cold immunoprecipitation wash buffer (0.15M NaCl, 0.01 M Na-phosphate pH 7.2, 1% deoxycholate, 1% NP-40, 0.1% sodium dodecyl sulfate). Immune complexes are dissociated directly in SDS gel sample buffer 125 mM Tris, pH 6.8, 4% SDS, 10% glycerol, 0.004% bromphenol blue, 2 mM EGTA, and separated by 12% SDS-PAGE. The gel is processed for fluorography, dried, and exposed to X-ray film at −70° C. […]

[1] = test system: BALB/c mice sensitized with β-D-galactosamine; format: in vivo, mouse
DBA/1LacJ mice = assay: Collagen induced arthritis model, paw thickness; format: in vivo, mouse; details: day 74, eight doses at 0.4 mg/dose; vehicle 1.99 mm; p<0.05
Protocol: Twenty DBA/1LacJ mice, age 10–12 weeks, were immunized on day 0 at base of the tail with bovine collagen type II (CII 100 μg) emulsified in Freunds complete adjuvant (FCA; GibcoBRL). On day 7, a second dose of collagen was administrated via the same route (emulsified in Freunds incomplete adjuvant). On Day 14 mice were injected subcutaneously with 100 mg of LPS (055:B5). On day 70 mice were injected 40 μg LPS (0111:B4) intraperitoneally. Groups were divided according paw thickness, which was measured by a caliper, after randomization, to create a balanced starting group. Compound in buffer was given to mice on days 71, 72, 73, and 74 (total eight doses at 0.4 mg/dose, approximately 20 mg/kg of body weight). Mice were then examined on day 74 by two observers for paw thickness. FIG. 14 sets forth the experimental timeline. In this experiment, subsided mice (decline of full-blown arthritis) were treated with a final i.p. injection of LPS on day 70 to stimulate cytokine production as well as acute inflammation.

serum MIF = assay: Collagen induced arthritis model, serum MIF (ELISA); format: in vivo, mouse; details: day 74, compared to untreated CIA samples
Protocol: In another experiment, fifteen DBA/1J mice, age 10–12 weeks were immunized on day 0 at the base of the tail with bovine collagen type II (CII 100 μg), emulsified in Freunds complete adjuvant (FCA; GibcoBRL). On day 21, a second dose of collagen was administered via the same route, emulsified in Freunds incomplete adjuvant. On day 28 the mice were injected subcutaneously with 100 μg of LPS (055:B5). On day 71 the mice were injected i.p. with 40 μg LPS (0111:B4). Groups and treatment protocol were the same as described as above. On day 74 blood samples were collected and cytokines were measured.

## Cn1c(=O)c([N+](=O)[O-])c(N2CCN(C(=O)c3ccco3)CC2)c2ccccc21 [compound 7e]
MIF
  detectable MIF in conditioned media using the monoclonal antibody: significant loss of detectable MIF
[1]; 1 mg/kg LPS, 20 mg/kg compound, neutralized by 300 μg/kg human recombinant MIF
  survival at 12 hours: significantly more (p<0.01) mice survive
[1]; LPS Dosage 0.1 mg/kg
  75% Animal Death: >100 h
[1]; LPS Dosage 0.5 mg/kg
  75% Animal Death: >100 h
[1]; LPS Dosage 2 mg/kg
  75% Animal Death: >100 h
[1]; LPS Dosage 5 mg/kg
  75% Animal Death: 32.0 h
[1]; LPS Dosage 10 mg/kg
  75% Animal Death: 18.0 h
[1]; LPS Dosage 40 mg/kg
  75% Animal Death: 11.6 h
[1]; lethal dose of LPS (2, 5 and 10 mg/kg), 20 mg/kg i.p., control 6%, p=0.0004
  survival: 47%
DBA/1LacJ mice
  edema of the paw (paw thickness): 1.87 mm
Serum MIF
  serum MIF levels: reduced serum MIF levels
